Source: patent publication US5565433A, “Sulfated β-glycolipid derivatives as cell adhesion inhibitors” (Bristol-Myers Squibb Company, priority 1996, dated 1996)

Tests used:
[1] = system: Reverse Passive Arthus Reaction in Rats; experiment: Reverse Passive Arthus Reaction in Rats, myeloperoxidase (MPO); format: in vivo; conditions: rat, IV, % inhibition at 3 mg single dose, 4 hours
Excerpt: (§1) 3. Reverse Passive Arthus Reaction in Rats
(§2) The reverse passive Arthus reaction in rats is a modification of the method by Mulligan et al., as described in J. Clin. Invest., (1991 ) 88:1396-1406. This is an experimental model in which the interaction of antigen-antibody complexes and complement leads to a severe vasculitis that is associated with edema, induration, erythema and hemorrhage. The interaction between the antigen-antibody complexes and complement leads to a localized influx of neutrophils. These neutrophils release a variety of mediators that are associated with tissue damage and vascular permeability. The localized inflammatory reaction is measured using different techniques i.e., vascular permeability and neutrophil influx which is evaluated both biochemically and microscopically.
(§3) Male Sprague Dawley specific pathogen-free rats with jugular vein cannulae (280-320 g, Hill Top Labs, Pa.) are used in these studies. Animals are acclimated for at least 1 day and individually housed in stainless steel cages. The dorsal region of the rats is closely clipped 2 days prior to the experiments and divided into 4 sites on each side of the midline. Prior to all injections the rats are sedated with 0.4 ml per 300 gm rat of ketamine/rompun [1000 mg (10 ml) of ketamine HCL is mixed with 40 mg (2.0 ml) Rompun] administered IP and or inhalation anesthesia with metafane (methoxyflurane).
(§4) Bovin Serum Albumin (BSA) and rabbit polyclonal IgG rich in anti-BSA are purchased from Sigma Chemical Co. (St. Louis, Mo.). Radiolabelled ^125 I-BSA (spAct 1-5 μCi/μg) is purchased from Dupont NEN (Boston, Mass.).
(§5) Each rat is administered intradermal (ID) injection of (0.4 mg, 0.6 mg and 0.8 mg) anti-BSA in a volume of 100 μl per injection in normal saline. The ID injections are randomized near the mid dorsal region on both sides of the back bone. Immediately after the ID injections of the anti-BSA, the rats are administered intravenous (IV) injections of BSA (10 mg in 1.0 ml) in normal saline containing ^125 I labeled BSA (1 μCi/ml BSA or 5.0 μCi/kg body wt) for quantification of dermal vascular injury. Anti-inflammatory agents such as inhibitors of adhesion molecules of the present invention are administered IV at a single dose of 3 mg immediately after BSA. Four (4) hours after the IV injection of BSA, the rats are anesthetized with metafane and 2 to 3 ml of blood is withdrawn via the cannula into an anticoagulant containing (EDTA or Heparin) tube and plasma separated and saved for neutrophil and albumin quantitation. The rats are killed and the skin surrounding the injection site (15 mm diameter) is punched out and weighed. The skin samples and a fixed volume of plasma (0.1 to 1.0 ml) is analyzed in a gamma-counter for ^125 I content. Skin samples from the contralateral side are processed and analyzed for myeloperoxidase activity (MPO) as a measure of neutrophil accumulation. As needed, samples are also processed for histological evaluation of the reacted sites.
MPO is located in the azurephil granules of polymorphonuclear leukocytes (PMN). Because of its abundance in these cells (5% dry weight), this enzyme is used as a marker for tissue neutrophil content. For tissue MPO content, the method of Bradley, et al., was used as described in J. Invest. […] Change in absorbance at 450 nm was measured at room temperature using a Vmax kinetic plate reader (Molecular Devices, Pale Alto, Calif., USA). Percent inhibition of the test compound at 3 mg dose was determined as follows: [formula] […]

P-selectin [2] = target: T1, P-selectin (Homo sapiens, UniProt P16109); experiment: P-Selectin Adhesion Receptor Binding: cell-free ELISA, inhibition of P-selectin binding to immobilized sulfatides; conditions: immobilized sulfatide, pH 8.0
T1 construct: consists of the human lectin domain, the EGF domain, and two complement repeats of the human selectins; made in house
Excerpt: 1. P-Selectin Adhesion Receptor Binding
P-selectin (GMP140, granule membrane protein-140, PADGEM, or CD62) is a calcium-dependent transmembrane protein found in alpha granules of endothelial cells and platelets. It is an inducible selectin produced on activated endothelium and platelets which recognize alpha(2-3)sialylated and alpha(1-3)fucosylated lactosaminoglycans which include the sequence, Lewis x (Zhou et al., J. Cell. Biol., (1991) 115 (2): 557-564) and sulfatides (3-sulfated galactosyl ceramides, Aruffo, et al., Cell (1991) 67: 35-44). P-selectin may be responsible for the initial adhesion events between endothelium and neutrophils as evidenced by leukocyte rolling induced by P-selectin in flow cells (Lawrence, M., and T. Springer, Cell (1991) 65: 859-873).
Based on the availability of soluble forms of P-selectin prepared as described by Aruffo, A., et al., Cell, 67, 35-44 (1991), a binding ELISA based assay modified from Foxall, et al., J., Cell Biol., 117, 895-902 (1992) was developed to measure inhibitors of P-selectin binding to immobilized sulfatides. Such inhibitors were tested in the assay described below.
0.1 ml of sulfatide (SIGMA) or lysosulfatide (SIGMA) each at 1 μg/ml in MeOH were added to the wells of a 96-well ELISA plate (ProBind, Falcon) and allowed to dry overnight at room temperature. The next day the antigen coated plates were blocked for 1.5 hours at room temperature with 5% BSA (ICN) in buffer containing 20mM Hepes and 0.15 M NaCl, pH 8.0. Wild type P-selectin and mutants thereof were first mixed with HRP-conjugated goat anti-human IgG (Fisher Scientific), serially diluted and then incubated for 30 minutes at 37° C. in buffer containing 20 mM Hepes, 0.15 M NaCl, 1% BSA and 0.8 mM CaCl2, pH 8.0 prior to addition to the BSA blocked plates. Following the 30 minute preincubation, the fusion protein-HRP conjugate immunocomplexes were incubated on the blocked antigen coated plates for 45 minutes at 37° C. in the presence or absence of the test compounds and then washed to remove any unbound proteins. Bound complexes were detected by addition of substrate buffer (95 mM NaOAc.3H2 O, 5 mM citric acid monohydrate, 1.4 mM urea/H2O2) containing 3, 3', 5, 5' Tetramethylbenzidine (SIGMA). Reactions were stopped by the addition of 3N sulfuric acid and the absorbance read on an ELISA reader at dual wavelengths 450 and 630 nm. The efficacy of these compounds was compared to that of sulfatide (positive control) or to lysosulfatide (negative control). The data is obtained as percent inhibition of specific binding [formula] and a plot of dose vs. percent inhibition of Rg binding is generated in which IC50 (μM) is calculated and reported as cell free data in Table 1.

[3] = system: Reverse Passive Arthus Reaction in Rats; experiment: Reverse Passive Arthus Reaction in Rats, vascular permeability (VP); format: in vivo; conditions: rat, IV, % inhibition at 3 mg single dose, 4 hours
Excerpt: as §1, §2, §3, §4, §5
Vascular Permeability (VP)
The calculation of the plasma protein exudation into skin is made by determining the radioactivity in the tissue and relating this to the level of radioactive albumin in the blood at the time of sacrifice. […] [formula]
Percent inhibition of the test compound at 3 mg was determined as follows: [formula] Myeloperoxidase (MPO)

P-selectin [4] = target: T1, P-selectin; experiment: HL-60 Cell Binding to P-selectin Rg; format: cell-based; conditions: HL-60 cells binding to P-selectin Rg coated wells
Experimental: 2. HL-60 Cell Binding to P- and E-Selectin RG
Receptor globulin (Rg) Construction
The chimeric P-and E-selectin receptor globulin (Rg) consists of the human lectin domain, the EGF domain, and two complement repeats of the human selectins fused to the hinge, CH1 and CH2 domains of human IgG1. These proteins were prepared as described by Aruffo, et al., Cell (1991) 67: 35-44; Walz, et al., Science (1990) 250, 1132-1135.
Cell binding assay for Rg
The HL-60 cell line, obtained from the American Type Culture Collection, ATCC No. CCL240, was employed to investigate P-selectin Rg binding. Assays were done in 96-well tissue culture dishes. The wells were first coated with 0.5 ug goat anti-human Fc antiserum overnight, and nonspecific binding sites were blocked by incubation of the wells with 1% nonfat dry milk in phosphate buffered saline (PBS containing 0.9 mM CaCl2 and 0.8 mM MgSO4) for 30 minutes. The Rg was then bound to the anti Fc-coated wells by incubating 50 ng in 50 ul of PBS for two hours. Cells, washed twice and resuspended in PBS to remove traces of medium components, were labeled with 10 uM calcein acetoxy methyl ester for 30 minutes at 3×10^7 cells per ml at room temperature. Serum-containing medium (RPMI with 20% fetal calf serum) was added, and the cells washed, followed by resuspension in PBS and a further spin. The labeled cells, resuspended in PBS, were added to twice washed Rg-containing wells at 200,000 per well. Following a 30 minute incubation with slow shaking, the wells were aspirated and washed three times with PBS to remove unbound cells. To certain wells were added known numbers of cells for determination of a standard curve of fluorescent units per cell. The fluorescence on the plate was quantitated using a fluorescent plate reader. Following subtraction of a blank representing the binding of cells to non-Rg containing wells (<5000 cells), the specific binding to P- or E- selectin was determined.
Inhibitors of cell binding
Test compounds were prepared by dissolution to a final concentration of 20 mg/ml in dimethyl sulfoxide (DMSO), diluted in PBS to 2 mg/ml, and briefly sonicated prior to use. The Rg coated wells were preincubated at room temperature for 15 minutes with the inhibitor, and 200,000 cells were added to yield the final indicated inhibitor concentration in 160 ul of PBS. The data is obtained as percent inhibition of specific binding: [formula] and a plot of dose vs. percent inhibition of Rg binding is generated in which IC50 (μM) is calculated and reported in Table 1.

P-selectin [5] = conditions: Skinner et al.; cited from earlier work
P-selectin [6] = conditions: Larsen et al.; Erbe et al.; Aruffo et al.; cited from earlier work

T1 sequence (P16109 with tags, fused parts or gaps limits assumed): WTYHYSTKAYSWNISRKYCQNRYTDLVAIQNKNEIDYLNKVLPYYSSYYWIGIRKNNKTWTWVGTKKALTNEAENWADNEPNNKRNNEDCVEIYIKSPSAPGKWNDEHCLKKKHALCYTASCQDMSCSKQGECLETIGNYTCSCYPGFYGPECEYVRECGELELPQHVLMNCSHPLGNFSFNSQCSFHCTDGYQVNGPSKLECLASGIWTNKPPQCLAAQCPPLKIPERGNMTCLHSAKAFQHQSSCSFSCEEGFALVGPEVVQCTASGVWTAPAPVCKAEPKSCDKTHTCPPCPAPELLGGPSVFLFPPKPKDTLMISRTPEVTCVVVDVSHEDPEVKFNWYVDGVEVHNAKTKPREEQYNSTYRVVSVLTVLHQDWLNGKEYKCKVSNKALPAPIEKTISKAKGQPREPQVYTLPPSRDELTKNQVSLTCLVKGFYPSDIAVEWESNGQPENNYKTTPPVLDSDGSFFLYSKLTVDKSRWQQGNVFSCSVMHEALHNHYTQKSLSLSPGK

Row | Compound | RPA MPO % Inhib. [1] [%] | IC50 (P-selectin [2]) [µM] | RPA VP % Inhib. [3] [%] | inhibition of P-selectin mediated adhesion (in words) (P-selectin [5]) | other results
1 | CCCCCCCCCCCCC/C=C/[C@@H](OC(=O)c1ccccc1)[C@H](CO[C@@H]1O[C@H](COS(=O)(=O)O)[C@H](OS(=O)(=O)O)[C@H](OC(=O)c2ccccc2)[C@H]1OC(=O)c1ccccc1)NC(=O)CCCCCCCCCCCCCCC [Example 1, (2S,3R,4E)-3-Benzoyloxy-2-hexadecanoylamino-1-[2,3-di-O-benzoyl-4,6-di-O-(sodiumoxysulfonyl)-β-D-galactopyranosyloxy]-4-octadecene] | 24 | 0.1 | 42 |  | 
2 | CCCCCCCCCCCCC/C=C/[C@@H](OC(=O)c1ccccc1)[C@H](CO[C@@H]1O[C@H](COS(=O)(=O)O)[C@@H](OS(=O)(=O)O)[C@H](OC(=O)c2ccccc2)[C@H]1OC(=O)c1ccccc1)NC(=O)CCCCCCCCCCCCCCC [Example 3, (2S,3R,4E)-2-Hexadecanoylamino-3-benzoyloxy-1-(2,3-di-O-benzoyl-4,6-di-O-(sodiumoxysulfonyl)-β-D-glucopyranosyloxy)-4-octadecene] | 14 | 0.2 | 34 |  | 
3 | CCCCCCCCCCCCC/C=C/[C@@H](OC(=O)c1ccccc1)[C@H](CO[C@@H]1O[C@H](COS(=O)(=O)O)[C@H](OC(C)=O)[C@H](OS(=O)(=O)O)[C@H]1OC(=O)c1ccccc1)NC(=O)CCCCCCCCCCCCCCC [Example 8, (2S,3R,4E)-3-Benzoyloxy-2-hexadecanoylamino-1-[2-O-benzoyl-4-O-acetyl-3,6-di-O-(sodiumoxysulfonyl)-β-D-galactopyranosyloxy]-4-octadecene] |  | 1.3 |  |  | IC50 (P-selectin [4]): 15 µM
4 | CCCCCCCCCCCCC/C=C/[C@@H](OC(=O)c1ccccc1)[C@H](CO[C@@H]1O[C@@H]2COC(c3ccccc3)O[C@@H]2[C@H](OS(=O)(=O)O)[C@H]1OS(=O)(=O)O)NC(=O)CCCCCCCCCCCCCCC (stereo partly drawn) [Example 10, (2S,3R,4E)-3-Benzoyloxy-2-hexadecanoylamino-1-[2,3-di-O-(sodiumoxysulfonyl)-4,6-O-benzylidene-β-D-galactopyranosyloxy)-4-octadecene] | 56 |  | 0 |  | 
5 | CCCCCCCCCCCCCCCCCCCCCCCC(=O)N[C@@H](CO[C@@H]1O[C@H](COS(=O)(=O)O)[C@H](OS(=O)(=O)O)[C@H](OC(=O)c2ccccc2)[C@H]1OC(=O)c1ccccc1)[C@@H](CCCCCCCCCCCCCCC)OC(=O)c1ccccc1 [Example 19, (2S,3R)-3-Benzoyloxy-1-[2,3-di-O-benzoyl-4,6-di-O-(sodiumoxysulfonyl)-β-D-galactopyranosyl-oxy]-2-tetracosanoylaminooctadecane] |  | 0.6 to 4 |  |  | IC50 (P-selectin [4]): 45 µM
6 | CCCCCC/C=C/[C@@H](OC(=O)c1ccccc1)[C@H](CO[C@@H]1O[C@H](COS(=O)(=O)O)[C@H](O)[C@H](O)[C@H]1OS(=O)(=O)O)NC(=O)CCCCCCCCCCCCCCC [Example 25, (2S,3R,4E)-3-Benzoyloxy-2-hexadecanoylamino-1-[2,6-di-O-(sodiumoxysulfonyl)-β-D-galactopyranosyloxy]-4-undecene] |  | 2.7 |  |  | 
7 | dextran sulfate |  |  |  | inhibit P-selectin mediated adhesion | 
8 | fucoidan |  |  |  | inhibit P-selectin mediated adhesion | 
9 | heparin |  |  |  | inhibit P-selectin mediated adhesion | 
10 | sialyl-Le^x |  |  |  |  | P-selectin binding (in words) (P-selectin [6]): has been shown to bind
